In brackets after ≈: the same amount, converted by molar mass. Numbered stars: 1 amine (or outer) side, 2 acyl side, 3 side chain; on linkers, the order of the positions; unused ones are H or OH. Bridge positions count the residues as written; N and C are the ends. Square brackets hold non-standard residues; d marks the D form. Peptide text beside a SMILES is read from it. * marks the point of attachment. hTyr(3S-OH,4S-OH,3'-OSO3H) = N[C@H](C(=O)O)[C@H](O)[C@@H](O)c1ccc(O)c(OS(=O)(=O)O)c1; Orn(4R-OH,5R-OH) = O=C([C@H](C[C@@H](O)[C@@H](O)N[*:3])N[*:1])[*:2]; Pro(3S-OH,4S-Me) = C[C@H]1CN[C@H](C(=O)O)[C@H]1O; X1 = CCCCCOc1ccc(-c2cc(-c3ccc(C(=O)*)cc3)no2)cc1; Gln(3R-OH) = NC(=O)C[C@@H](O)[C@H](N)C(=O)O; Hyp = O=C(O)[C@@H]1C[C@@H](O)CN1
Tests used:
[1] = Population pharmacokinetic modelling of micafungin in critically ill patients (NONMEM, plasma samples); assay type: in vivo, human
Text: This is a non-interventional study conducted in critically ill adult patients treated in the intensive care units of the Department of Anaesthesiology, Intensive Care Medicine and Pain Therapy of the University Hospital Muenster in Germany. The collection of data and blood samples was approved by the ethics committee of the University of Muenster (Study Code 06-AnIt-11). […] Written informed consent was obtained from all patients or their representatives.
The study included 36 adult patients. Patient demographics and other clinical parameters were collected from the electronic patient charts of the intensive care unit. All patients received 100 mg micafungin intravenously once daily either as empiric or targeted therapy of suspected or proven infection. The decision to begin or end therapy was made by the physicians in charge of the intensive care units irrespective of the pharmacologic study.
Blood samples were collected from indwelling arterial catheters for analysis of micafungin concentrations. On day 1, plasma micafungin concentration was determined at 1, 4, 8, 12, 16 and 20 hours post application and as a trough level immediately before the next dose of micafungin after 24 hours. From day two of therapy, peak levels one hour after infusion and trough levels were collected.
Blood samples were exclusively taken from arterial lines into ethylenediaminetetraacetic acid (EDTA)-containing sample vials tubes (S-Monovette® 2.7 ml K3E, Sarstedt, Nümbrecht, Germany). Samples were immediately transported to the in-house laboratory and plasma was separated by centrifugation at 1600 x g (10 min) and kept and frozen at −80 °C until analysis.
Micafungin in human plasma was analyzed with reversed-phase high-performance liquid chromatography. 200 µl serum, 20 µl internal standard solution (anidulafungin 1 mg/ml in water), 20 µl 30% ZnSO4 x7H2O (w/v) in water and 700 µl methanol were vortex-mixed (5 sec) followed by centrifugation at 800 g for 3 min. 50 µl of the supernatant was injected on a 125 liquid chromatograph (Beckman Coulter GmbH, Krefeld, Germany) interfaced with a model 168 diode array detector. Chromatographic conditions: mobile phase: acetonitrile/50 mM ammonium acetate buffer pH 4.6, 50:50 (v/v); flow rate 1 ml/min at 45 °C; absorbance detection 271 nm; column: XTerra RP18, 3.5 µm, 150 × 4.6 mm (Waters GmbH, Eschborn, Germany).
Model building was performed using NONMEM (Version 7.3; ICON Development Solutions, Ellicott City, MD) with the ADVAN 6 subroutine and the FOCE + I estimation method. Visual predictive checks (pcVPC) and stepwise covariate model building (SCM) were performed with the PsN module (Version 4.6.0)[25]. Graphical output was created in R (version 3.4.0; R foundation for statistical computing, Vienna, Austria) with additional use of the Xpose package (version 4.5.3)[26].
The basic structural model was tested with the following compositions: One to three compartments with linear clearance, nonlinear (Michaelis Menten) clearance and a combination of both were tested.
As categorical covariate, sex was tested. Covariate influence was tested on central and peripheral volumes of distribution, and clearance. Covariate testing was performed using stepwise covariate modelling (SCM) in PsN with a 5% forward inclusion and 1% backward elimination criterion.

C. albicans [2] = assay: Pharmacodynamic target evaluation (AUC/MIC) in the study population; assay type: in vivo, Candida albicans; conditions: fixed dose 100 mg once daily, post-hoc AUC 0-24 h per patient and day
Text: (§1) The European Committee on Antimicrobial Susceptibility Testing (EUCAST) established the guideline for micafungin and Candida ssp. with species related clinical breakpoints for non-resistant strains. These breakpoints were used as surrogate for the minimal inhibitory concentration (MIC) for C. albicans, C. glabrata and C. parapsilosis. Proposed MICs are […], respectively.
(§2) Using the previously established population pharmacokinetic model, the AUC for each patient on each day of therapy was determined.

C. glabrata [3] = assay: as above; assay type: in vivo, Candida glabrata; conditions: fixed dose 100 mg once daily, post-hoc AUC 0-24 h per patient and day
Text: as §1, §2

C. parapsilosis [4] = assay: as above; assay type: in vivo, Candida parapsilosis; conditions: fixed dose 100 mg once daily, post-hoc AUC 0-24 h per patient and day
Text: as §1, §2

C. albicans [5] = conditions: non-resistant strains; cited from earlier work
Text: as §1

C. parapsilosis [6] = conditions: non-resistant strains; cited from earlier work
Text: as §1

C. albicans [7] = system: C. albicans; set-up: method as in EUCAST; conditions: ref EUCAST; cited from earlier work
C. glabrata [8] = system: C. glabrata; set-up: method as in EUCAST; conditions: ref EUCAST; cited from earlier work
C. parapsilosis [9] = system: C. parapsilosis; set-up: method as in EUCAST; conditions: ref EUCAST; cited from earlier work
[10] = cited from earlier work
Protocol: (§3) Micafungin has a small volume of distribution (~119 ml/kg) and the drug is highly protein bound (>99%). The primary binding protein is albumin. […] The pharmacokinetics and pharmacodynamics of micaf ...

albumin = conditions: primary binding protein is albumin; cited from earlier work
Protocol: as §3

[11] = final population PK model estimate, 36 critically ill adult patients, 100 mg i.v. once daily

With CCCCCOc1ccc(-c2cc(-c3ccc(C(=O)N[C@H]4C[C@@H](O)[C@@H](O)NC(=O)[C@@H]5[C@@H](O)[C@@H](C)CN5C(=O)[C@H]([C@H](O)CC(N)=O)NC(=O)[C@H]([C@H](O)[C@@H](O)c5ccc(O)c(OS(=O)(=O)O)c5)NC(=O)[C@@H]5C[C@@H](O)CN5C(=O)[C@H]([C@@H](C)O)NC4=O)cc3)no2)cc1 [micafungin] (X1-[Orn(4R-OH,5R-OH)]T[Hyp][hTyr(3S-OH,4S-OH,3'-OSO3H)][Gln(3R-OH)][Pro(3S-OH,4S-Me)]; lactam 1-C) the “Influence of renal replacement therapy on pharmacokinetics” value ([1]; CVVHDF, SLEDD, clearance and volumes of distribution) was “did not alter the pharmacokinetics”, the “Lower central volume of distribution in patients with SOFA >10” value ([1]; categorical covariate effect, SOFA >10 vs less critically ill patients) was 30.8% and the “Lower clearance in patients with bilirubin >4 mg/dl” value ([1]; categorical covariate effect, bilirubin >4 mg/dl) was 21.1%. The “Central volume of distribution” value [1, 11] was 16.2 L, the Inter-compartmental clearance [1, 11] was 14.4 L/h and the “Peripheral volume of distribution” value [1, 11] was 13.8 L. For the same compound, the clearance ([1]; human, iv, final population PK model estimate (two compartments, linear elimination), 36 critically ill adult patients, 100 mg i.v. once daily, plasma, HPLC-UV) was 26 mL/min, the “Accumulation of micafungin in plasma” value ([1]; up to 10 days of treatment, 100 mg i.v. once daily) was “No accumulation” and the “Adequacy of AUC/MIC ratio against EUCAST breakpoint” value (“Adequacy of AUC/MIC ratio” for short) (C. albicans [2]) was “adequate therapy intensities”. For the same compound, the “Adequacy of AUC/MIC ratio” value (C. glabrata [3]) was “adequate therapy intensities”, the “Adequacy of AUC/MIC ratio” value (C. parapsilosis [4]) was “does not seem suitable” and the “MIC (EUCAST breakpoint as surrogate)” value (C. albicans [5]) was 16 µg/mL (≈ 12.6 µM). For the same compound, the “MIC (EUCAST breakpoint as surrogate)” value (C. parapsilosis [6]) was 2000 µg/mL (≈ 1570 µM), the “AUC/MIC target to reach stasis” value (C. albicans [7]) was 2420 and the “AUC/MIC target to reach stasis” value (C. glabrata [8]) was 1283. For the same compound, the “AUC/MIC target to reach stasis” value (C. parapsilosis [9]) was 285, the Volume of distribution [10] was ~ 119 ml/kg and the Linearity of pharmacokinetics ([10]; daily doses between 12.5 mg and 200 mg as well as 3 mg/kg and 8 mg/kg) was “Linear pharmacokinetics”. The Protein bound (albumin) was over 99%.
